Results published in patent US20020136711A1, “Compositions used in human treatment” (priority 1998, published 2002).

Columns and labels:
[1] = clinical trials: absorbability of chelated potassium; type: in vivo, human; conditions: potassium bonded or chelated with an amino acid or a simple sugar
Text: A preferred aspect of the present invention is the administering of potassium when bonded or chelated with an amino acid or a simple sugar.

skin flushing or rash = conditions: larger doses of niacin
Text: Typically, the form of niacin used may produce a flushing, redness or rash to the skin when consumed in large doses. […] Inositol is molecularly bonded to niacin, and in conjunction therewith serves to slow the absorption of nicotinic acid.

Compound	absorbability and assimilation into the bloodstream [1]	side-effects (flushing, redness or rash to the skin) at larger doses (skin flushing or rash)
O=C([O-])[C@H](O)[C@@H](O)[C@H](O)[C@H](O)CO.[K+] [potassium gluconate]	better absorbability and assimilation into the bloodstream	
O=C(O[C@H]1[C@H](OC(=O)c2cccnc2)[C@@H](OC(=O)c2cccnc2)[C@H](OC(=O)c2cccnc2)[C@@H](OC(=O)c2cccnc2)[C@H]1OC(=O)c1cccnc1)c1cccnc1 [niacin inositol hexanicotinate]		no side-effects
